Experiment [1] relates to NOSNoc. The experiment in a line: NOSNoc activity, oxyhemoglobin spectrophotometric assay (kinetics and inhibition). The format is biochemical, Nocardia species (NRRL 5646). The conditions noted are these: for Vmax / Km: compound as substrate of NOSNoc; for Ki: model of competitive inhibition; for Mode of inhibition of NO synthesis by NOSNoc: with either L-arginine or L-NOHA as substrate. Here is the method:
Assays for NOS activity were carried out using a Shimadzu 160 spectrophotometer by observing the increase in absorbance at 401 nm at 25° C. A typical sample assay contained 50 mM potassium phosphate buffer (pH 7.5), 4 μM oxyHb, 100 μM L-arginine of L-NOHA (for kinetic experiments), 100 μM NADPH, 1 mM CaCl2, 10 μM FAD, 10 μM FMN, 80 μM H4 B, 150 μM DTT and 0.1-2 μg enzyme in a final volume of 1 ml. For assays, the reference cuvette contained all components except for L-arginine or L-NOHA. All assays were initiated by adding enzyme.

The test system of experiment [2] is NOSNoc. The experiment in a line: Stoichiometry of product formation and cofactor utilization by NOSNoc. The conditions noted are these: compound as substrate for NOSNoc. The format is biochemical, Nocardia species (NRRL 5646). Here is the method:
NOS activity was also determined by measuring the decrease in absorbance at 340 nm as NADPH was consumed during the conversation of L-arginine to L-citrulline by NOS. Furfine, E. S., et al. (1993) Biochemistry 32, pp. 8512-8517.
Bredt, D. S., and Snyder, S. H. (1989) Proc. Natl. Acad. Sci. U.S.A. 86, pp. 9030-9033. Reaction samples (50 μl, 100 μM arginine and 1 μCi radioactivity)in 2 ml of stop buffer (20 mM HEPES and 2 mM EDTA, pH 5.5) were applied to a fresh 1-ml Dowex AG50W-X8 (Na+ form, 100-200 mesh) column. Labeled citrulline was eluted with 2 ml of distilled water, and the eluates were collected. Aliquots of 0.1 ml of eluate were dissolved in 5 ml of Budget Solve cocktail in 10 ml scintillation vials, and radioactivity was measured in a Beckman LS 3801 liquid scintillation system.
Nitrite was measured spectrophotometrically using Griess reagent. Green, L. C., et al. (1982) Anal. Biochem. 126, pp. 131-138. […] After standing for 15-30 minutes at room temperature, the absorbance at 540 nm was measured. Nitrite concentrations were estimated by comparison with a standard curve at the range of 0-1.0 μg/ml prepared with standard sodium nitrite in water.
Oxygen concentrations were calculated based on the deflection of the chart recorder versus 206 μM oxygen-total oxygen content in the reaction vessel. Koppenol, W. H. (1985) Adv. Free Radical Biol. Med. 1, 91-131.
Stoichiometric determinations of oxygen consumed, NADPH oxidized, NO and citrulline formed, and kinetic experiments were carried out to confirm that L-NOHA is an intermediate in the biosynthesis of nitric oxide from L-arginine.

Setting [3] is: EZ-FIT fit, table values are the mean S.D. of three determinations.
[4] abbreviates: Table III, EZ-FIT fit, mean S.D. of three determinations.
[5] abbreviates: L-Arginine as substrate, mean S.D. of three determinations.
The mark [6] stands for this setting: N^G -Hydroxy-L-arginine as substrate, mean S.D. of three determinations.

Molecules are shown by their SMILES. “Also recorded” adds a separate entry of the source.

A word on the Km: it is the substrate concentration at which the rate is half of its maximum. For the compound `N=C(N)NCCC[C@H](N)C(=O)O` [L-Arginine], in the experiment on NOSNoc [1], the Vmax is given as 607 nmol/min/mg protein. In addition, the Km in the experiment with NOSNoc [1] (setting [3]) came to 5.7 µM. The Vmax in the experiment with NOSNoc [1] (setting [4]) stood at 274 ± 13 nmole/min/mg protein. In the experiment with NOSNoc [2], this compound had a Citrulline formation of 4.21 ± 0.17 nmol, an NADPH consump of 8.77 ± 0.32 nmol, a Nitrile formation of 4.63 ± 0.28 nmol and an Oxygen consump of 8.89 ± 0.33 nmol.

Usually Ki stands for a measure of affinity in units of concentration, obtained from inhibition or displacement. High values mean a looser hold on the target, low ones a stronger hold on the target. On to `N=C(NCCC[C@H](N)C(=O)O)N[N+](=O)[O-]` [N^G -nitro-L-arginine], for which the Ki on NOSNoc [1] (setting [5]) amounted to 9.8 ± 0.6 µM; on NOSNoc [1] (setting [6]), 21.4 ± 1.2 µM. In addition, the “Mode of inhibition of NO synthesis by NOSNoc” value with NOSNoc [1] (listed as L-NNA) is “typical competitive inhibition; also recorded: reversible competitive inhibitors”.

As to `N=C(NO)NCCC[C@H](N)C(=O)O` [N^G -Hydroxy-L-arginine], the Vmax in the experiment with NOSNoc [1] is 549 nmol/min/mg protein. Besides, in the experiment on NOSNoc [1] (setting [3]), the Km was found to be 15.8 µM. In addition, the Vmax in the experiment on NOSNoc [1] (setting [4]) is on record as 303 ± 15 nmole/min/mg protein. Further, the Km with NOSNoc [1] (value as printed in the discussion) was 15.8 µM. In the experiment on NOSNoc [2], this compound returned a Citrulline formation of 4.54 ± 0.21 nmol, an NADPH consump of 4.38 ± 0.24 nmol, a Nitrile formation of 4.57 ± 0.20 nmol and an Oxygen consump of 4.46 ± 0.16 nmol.

With `CNC(=N)NCCC[C@H](N)C(=O)O` [N^G -methyl-L-arginine], the Ki at NOSNoc [1] (setting [5]) came out at 6.2 ± 0.4 µM; at NOSNoc [1] (setting [6]) it was 21.4 ± 1.2 µM. Moreover, the “Mode of inhibition of NO synthesis by NOSNoc” value in the experiment on NOSNoc [1] (listed as L-NMA) was “typical competitive inhibition; also recorded: reversible competitive inhibitors”.

The values are drawn from US5759835A, “Bacterial nitric oxide synthase” (priority 1995, dated 1998).
